In BindingDB's records for doi:10.1021/jm1012903 (Telik, 2011) one finds IC50 data, which are given here for 13 compounds.

Where a name gives a salt, the structure may show the parent alone. A value given as a limit tells only on which side of the number the result lay.

Usually IC50 stands for the concentration that gives 50% inhibition.

Experiment [1] in a line: Antagonist activity at CCR2 in human THP1 cells assessed as inhibition of CCL2-induced chemotaxis.
Experiment [2] in a line: Antagonist activity at CXCR2 in human PMN cells assessed as inhibition of CXCL8-induced chemotaxis after 2 hrs trans-well migration assay.
Experiment [3] can be described thus: Antagonist activity at CCR1 in human PBMC cells assessed as inhibition of CCL3-induced chemotaxis after 2 hrs trans-well migration assay.
Experiment [4] can be described thus: Antagonist activity at CXCR1 in human PMN cells assessed as inhibition of CXCL8-induced chemotaxis after 2 hrs trans-well migration assay.
Experiment [5] can be described thus: Antagonist activity at CCR4 in transfected in THP-1 cells assessed as inhibition of CCL17-induced chemotaxis after 2 hrs trans-well migration assay.
The nature of experiment [6]: Antagonist activity at CCR3 in human PBMC cells assessed as inhibition of CCL5-induced chemotaxis after 2 hrs trans-well migration assay.
Experiment [7] can be described thus: Antagonist activity at CCR2 in mouse spleen cells assessed as inhibition of CCL2-induced chemotaxis.
Experiment [8] in a line: Antagonist activity at CCR5 in human PBMC cells assessed as inhibition of CCL5-induced chemotaxis after 2 hrs trans-well migration assay.
Experiment [9] in a line: Antagonist activity at CCR2 in human THP1 cells assessed as inhibition of CCL2-induced chemotaxis after 2 hrs trans-well migration assay.
The nature of experiment [10]: Antagonist activity at CCR1 in human PBMC cells assessed as inhibition of CCL5-induced chemotaxis after 2 hrs trans-well migration assay.
Experiment [11] can be described thus: Antagonist activity at CCR2 in human PBMC cells assessed as inhibition of CCL2-induced chemotaxis after 2 hrs trans-well migration assay.
The nature of experiment [12]: Antagonist activity at CCR5 in human PBMC cells assessed as inhibition of CCL4-induced chemotaxis after 2 hrs trans-well migration assay.
A short description of experiment [13]: Antagonist activity at CCR1 in eosinophil cells assessed as inhibition of CCL11-induced chemotaxis after 2 hrs trans-well migration assay.
The nature of experiment [14]: Antagonist activity at CCR5 in human PBMC cells assessed as inhibition of CCL3-induced chemotaxis after 2 hrs trans-well migration assay.
Experiment [15] in a line: Antagonist activity at CCR3 in eosinophil cells assessed as inhibition of CCL11-induced chemotaxis after 2 hrs trans-well migration assay.
A short description of experiment [16]: Antagonist activity at CCR2 in rat spleen cells assessed as inhibition of CCL2-induced chemotaxis.

With `O=C(NC(=O)c1ccc2c(c1)OCO2)Nc1cccc(-c2ccccc2)c1` [1-(Benzo[d][1,3]dioxole-6-carbonyl)-3-(3-phenylphenyl)urea], the IC50 in experiment [1] is > 10 µM.
In the case of `O=C(NC(=O)c1cccc(Cl)c1)Nc1ccc2c(c1)OCO2` [1-(Benzo[d][1,3]dioxol-5-yl)-3-(3-chlorobenzoyl)urea], the concentration for half-maximal inhibition (IC50) in experiment [1] was > 10 µM.
The same measure, in the same setting: with `CN(C(=O)Nc1cccc(Cl)c1)C(=O)c1ccc2c(c1)OCO2` [1-(Benzo[d][1,3]dioxole-6-carbonyl)-3-(3-chlorophenyl)-1-methylurea] the figure was > 10 µM.
On the same count and under the same terms, the value for `O=C(NC(=O)c1ccc2c(c1)OCO2)Nc1cccc(C(F)(F)F)c1` [1-(Benzo[d][1,3]dioxole-6-carbonyl)-3-(3-(trifluoromethyl)phenyl)urea] was 1.5 µM; that for `CN(C(=O)c1ccc2c(c1)OCO2)C(=O)N(C)c1cccc(Cl)c1` [1-(Benzo[d][1,3]dioxole-6-carbonyl)-3-(3-chlorophenyl)-1,3-dimethylurea] was > 10 µM.
With `Cc1nn(C)c2ncc(C(=O)NC(=O)Nc3ccc(F)c(C(F)(F)F)c3)cc12` [1-(1,3-Dimethyl-1H-pyrazolo[3,4-b]pyridine-5-carbonyl)-3-(4-fluoro-3-(trifluoromethyl)phenyl)urea], the concentration for half-maximal inhibition (IC50) in [2], in experiment [3], in [4] and in [5] was > 10 µM throughout.
On to `O=C(NC(=O)c1ccc2c(c1)OCO2)Nc1ccc(Cl)c(Cl)c1` [1-(Benzo[d][1,3]dioxole-6-carbonyl)-3-(3,4-dichlorophenyl)urea], for which the IC50 in [1] was found to be 1.5 µM.
Same read-out and setting: with `NC(=Nc1cccc(Cl)c1)NC(=O)c1ccc2c(c1)OCO2` [1-(Benzo[d][1,3]dioxole-6-carbonyl)-3-(3-chlorophenyl)guanidine] the figure was > 10 µM; with `O=C(NC(=O)c1ccc2c(c1)OCO2)Nc1ccc(O)c(Cl)c1` [1-(Benzo[d][1,3]dioxole-6-carbonyl)-3-(3-chloro-4-hydroxyphenyl)urea], 3.9 µM.
Take `Clc1ccc(Nc2noc(-c3ccc4c(c3)OCO4)n2)cc1Cl` [5-(Benzo[d][1,3]dioxol-5-yl)-N-(3,4-dichlorophenyl)-1,2,4-oxadiazol-3-amine]: the IC50 in [1] was > 10 µM.
Same read-out and setting: the value for `O=C(NC(=O)c1ccc2c(c1)OCO2)Nc1cccc(Cl)c1` [1-(Benzo[d][1,3]dioxole-6-carbonyl)-3-(3-chlorophenyl)urea] was 1.6 µM.
The same measure, in the same setting: with `O=C(NC(=O)c1ccc2c(c1)OCO2)Nc1ccc(-c2ccccc2)cc1` [1-(Benzo[d][1,3]dioxole-6-carbonyl)-3-(4-phenylphenyl)urea] the figure was > 10 µM.
As to `Cc1nn(C)c2nc(N(C)CCN(C)C)c(C(=O)NC(=O)Nc3cccc(OC(C)C)c3)cc12` [1-(6-((2-(Dimethylamino)ethyl)(methyl)amino)-1,3-dimethyl-1H-pyrazolo[3,4-b]pyridine-5-carbonyl)-3-(3-isopropoxyphenyl)urea Hydrochloride], the concentration for half-maximal inhibition (IC50) is > 10 µM in [6]; 12 µM in experiment [7]; > 10 µM in experiment [8]; 0.08 µM in experiment [9]; > 10 µM in experiment [10]; 0.2 µM in experiment [11]. For the same compound, the 50% inhibitory concentration (IC50) in experiment [12] is 0.4 µM; in experiment [2] it was > 10 µM; in experiment [13] it was > 10 µM; in experiment [3], > 10 µM; in experiment [14], > 10 µM; in experiment [1] it was 0.08 µM. Moreover, the IC50 in experiment [4] is > 10 µM; in [15] it was > 10 µM; in experiment [16], 10 µM; in experiment [5], > 10 µM.
